By MIC is commonly meant the lowest concentration that inhibits growth of the organism.

Molecules are shown by their SMILES. In brackets after ≈: the same amount, converted by molar mass. Starred links: 1 amine or outer side, 2 acyl side, 3 side chain; linkers in the order of their positions; H or OH if unused. Positions of bridges follow the written chain, without caps; N, C: chain ends. Non-standard residues stand in square brackets, D forms with d. Residues, ends and D or L forms follow the SMILES beside them. *: point of attachment. pTerphenylCO(4''-OnC5H11) = CCCCCOc1ccc(-c2ccc(-c3ccc(C(=O)*)cc3)cc2)cc1; Orn(4R-OH,5R-OH) = O=C([C@H](C[C@@H](O)[C@@H](O)N[*:3])N[*:1])[*:2]; hTyr(3S-OH,4S-OH) = N[C@H](C(=O)O)[C@H](O)[C@@H](O)c1ccc(O)cc1; Pro(3S-OH,4S-Me) = C[C@H]1CN[C@H](C(=O)O)[C@H]1O; Hyp = O=C(O)[C@@H]1C[C@@H](O)CN1

Format in all cases: functional
Assay [1] concerns Candida albicans. As to the kind of experiment: Antifungal activity against Candida albicans assessed as decrease in biofilm formation at 0.25 ug/ml. The arrangement: scale not given: the % may be the effect or the level left.
The test system of assay [2] is Candida albicans. Nature of the assay: Antifungal activity against […] gene deficient Candida albicans assessed as decrease in biofilm formation at 0.25 ug/ml. Also on record: scale not given: the % may be the effect or the level left.
The subject of assay [3] is Candida albicans. As to the kind of experiment: Antifungal activity against Candida albicans TDH3 overexpressing FKS1 gene.
The test system of assay [4] is Candida albicans. Nature of the assay: Antifungal activity against Candida albicans grown as planktonic cell after 24 hrs by XTT reduction assay.
Assay [5] concerns Candida albicans. Nature of the assay: Antifungal activity against […] gene deficient Candida albicans.

Turning to `C[C@@H]1[C@H](O)[C@@H](C)/C=C/C=C/C=C/C=C/C=C/C=C/C=C/[C@H](O[C@@H]2O[C@H](C)[C@@H](O)[C@H](N)[C@@H]2O)C[C@@H]2O[C@](O)(C[C@@H](O)C[C@@H](O)[C@H](O)CC[C@@H](O)C[C@@H](O)CC(=O)O[C@H]1C)C[C@H](O)[C@H]2C(=O)O` [AMPHOTERICIN B], the Activity with Candida albicans [1] is reported as 60%; with Candida albicans [2], 80%.
Consider `CCCCCOc1ccc(-c2ccc(-c3ccc(C(=O)N[C@H]4C[C@@H](O)[C@@H](O)NC(=O)[C@@H]5[C@@H](O)[C@@H](C)CN5C(=O)[C@H]([C@@H](C)O)NC(=O)[C@H]([C@H](O)[C@@H](O)c5ccc(O)cc5)NC(=O)[C@@H]5C[C@@H](O)CN5C(=O)[C@H]([C@@H](C)O)NC4=O)cc3)cc2)cc1` [ANIDULAFUNGIN] ({pTerphenylCO(4''-OnC5H11)}-[Orn(4R-OH,5R-OH)]T[Hyp][hTyr(3S-OH,4S-OH)]T[Pro(3S-OH,4S-Me)]; lactam 1-C), for which the minimal inhibitory concentration (MIC) with Candida albicans [3], in the assay with Candida albicans [4] and against Candida albicans [5] was 0.01 µg/mL (≈ 0.00877 µM) throughout.
In the case of `Nc1nc(=O)[nH]cc1F` [FLUCYTOSINE], the minimum inhibitory concentration (MIC) in the assay on Candida albicans [3], against Candida albicans [4] and in the assay on Candida albicans [5] was 0.03 µg/mL (≈ 0.232 µM) throughout.

The record behind these values is ChEMBL document CHEMBL1275255, “Role of Fks1p and matrix glucan in Candida albicans biofilm resistance to an echinocandin, pyrimidine, and polyene” (2010).
